Measured values published in ChEMBL document CHEMBL4390683, “Design, synthesis, and evaluation of α-galactopyranosylceramide mimics promoting Th2 cytokines production” (2019).

Legend:
Type in all cases: functional
Mus musculus [1] = assay: Induction of serum IFNgamma production in C57BL/6 mouse assessed as serum IFNgamma level at 100 ug/kg, ip and measured for 48 hrs by peak value method
Mus musculus [2] = assay: Ratio of induction activity for IL-4 production in C57BL/6 mouse at 100 ug/kg, ip after 48 hrs by peak value method to induction activity for IFN-gamma production in C57BL/6 mouse at 100 ug/kg, ip after 48 hrs by peak value method
Mus musculus [3] = assay: Ratio of induction activity for IL-4 production in C57BL/6 mouse at 100 ug/kg, ip after 48 hrs by AUC method to induction activity for IFN-gamma production in C57BL/6 mouse at 100 ug/kg, ip after 48 hrs by AUC method
Mus musculus [4] = assay: Induction of serum IFNgamma production in C57BL/6 mouse at 100 ug/kg, ip and measured for 48 hrs by AUC method relative to KRN7000
Mus musculus [5] = assay: Induction of serum IL-4 production in C57BL/6 mouse assessed as serum IL-4 level at 100 ug/kg, ip and measured for 48 hrs by peak value method relative to KRN7000
Mus musculus [6] = assay: Induction of serum IL-4 production in C57BL/6 mouse at 100 ug/kg, ip and measured for 48 hrs by AUC method relative to KRN7000
Mus musculus [7] = assay: Induction of serum IFNgamma production in C57BL/6 mouse assessed as serum IFNgamma level at 100 ug/kg, ip and measured for 48 hrs by peak value method relative to KRN7000
Mus musculus [8] = assay: Induction of serum IFNgamma production in C57BL/6 mouse assessed as serum IFNgamma level at 100 ug/kg, ip and measured for 48 hrs by AUC method
Mus musculus [9] = assay: Induction of serum IL-4 production in C57BL/6 mouse assessed as serum IL-4 level at 100 ug/kg, ip and measured for 48 hrs by AUC method
Mus musculus [10] = assay: Induction of serum IL-4 production in C57BL/6 mouse assessed as serum IL-4 level at 100 ug/kg, ip and measured for 48 hrs by peak value method; design: unit not given here

Row | Compound | Activity (Mus musculus [1]) [pg/mL] | Ratio (Mus musculus [2]) | Ratio (Mus musculus [3]) | Activity (Mus musculus [4]) [%] | Activity (Mus musculus [5]) [%] | Activity (Mus musculus [6]) [%] | Activity (Mus musculus [7]) [%] | AUC (Mus musculus [8]) [pg·h/mL] | Activity (Mus musculus [9]) [pg·h/mL] | Activity (Mus musculus [10])
1 | CCCCCCCCCCCCCCCCCCCCCCCC(=O)N[C@@H](CO[C@H]1O[C@H](CO)[C@H](O)[C@H](O)[C@H]1O)[C@H](O)[C@H](O)CCCCC | 336 | 4.85 | 6.45 | 39 | 244 | 251 | 50 | 6780 |  | 
2 | CCCCCCCCCCCCCCCCCCCCCCCCCC(=O)N[C@@H](CO[C@H]1O[C@H](CO)[C@H](O)[C@H](O)[C@H]1O)[C@H](O)[C@H](O)CCCCCCCCCCCCCC [RGI-7000] | 666 | 1 | 1 |  |  |  |  | 17400 | 1331 | 280
3 | CCCCCCCCCCCCCCCCCCCCCCCC(=O)N[C@@H](CO[C@H]1O[C@H](CNC(=O)[C@@H](N)CCC(=O)O)[C@H](O)[C@H](O)[C@H]1O)[C@H](O)[C@H](O)CCCCC | 241 | 2.99 | 7.59 | 20 | 108 | 153 | 36 | 3520 | 2043.36 | 303.26
4 | CCCCCCCCCCCCCCCCCCCCCCCC(=O)N[C@@H](CO[C@H]1O[C@H](CNC(=O)CCc2ccc(O)cc2)[C@H](O)[C@H](O)[C@H]1O)[C@H](O)[C@H](O)CCCCC | 169 | 9.28 | 9.3 | 25 | 235 | 234 | 25 | 4380 | 3120.95 | 657.75
